This data set in a line: HILIC, Waters ACQUITY UPLC BEH Amide, 100 × 2.1 mm, 1.7 µm; A: water + 0.125% formic acid + 10 mM ammonium formate; B: 5% water + 95% acetonitrile + 0.125% formic acid + 10 mM ammonium formate; gradient (min/%B) 0/100 2/100 7.7/70 9.5/40 10.25/30 12.75/100 17/100. The note with it: stereoisomer not certain.
As for `CC(C)(O)CC(=O)O` [beta-Hydroxyisovaleric acid], the LC retention time came to 4.55 min.

On to `NC(CCSSCCC(N)C(=O)O)C(=O)O` (centres undefined) [Homocystine], for which the LC retention time was found to be 9.58 min.

Turning to `C=Cc1ccccc1` [Styrene], the LC retention time was 8.74 min.

In the case of `O=C(O)CNC(=O)Cc1ccccc1` [Phenylacetylglycine], the LC retention time is 2.88 min.

As to `Nc1ncnc2c1ncn2C1OC(CO)C(OP(=O)(O)O)C1O` (centres undefined) [Adenosine-3-monophosphate], the LC retention time came out at 8.88 min.

In the case of `NCCC(=O)O` [beta-Alanine], the LC retention time is 8.02 min.

Regarding `O=P(O)(O)OC1OC(CO)C(O)C(O)C1O` (centres undefined) [Glucose-1-phosphate], the LC retention time stood at 9.61 min.

Take `Nc1nc(=O)n(C2OC(CO)C(O)C2O)cc1CO` (centres undefined) [5-Hydroxymethylcytidine]: the LC retention time was determined as 7.54 min.

As to `Cn1c[n+](C2OC(CO)C(O)C2O)c2nc(N)nc([O-])c21` (centres undefined) [7-Methylguanosine], the LC retention time worked out at 7.34 min.

`COc1ccccc1OCCNCC(O)COc1cccc2[nH]c3ccccc3c12` (centres undefined) [Carvedilol]: the LC retention time is 3.17 min.

For the molecule `O=c1[nH]c(=O)c2nccnc2[nH]1` [Lumazine], the LC retention time came out at 2.49 min.

For the molecule `CC1CC2C3CC(F)C4=CC(=O)C(Cl)=CC4(C)C3(F)C(O)CC2(C)C1(O)C(=O)CO` (centres undefined) [Halometasone], the LC retention time came to 1.12 min.

`CC(C)c1ccc2c(c1)c(SC(C)(C)C)c(CC(C)(C)C(=O)O)n2Cc1ccc(Cl)cc1` [MK-886]: the LC retention time was determined as 0.96 min.

Consider `Clc1cccc(Cl)c1NC1=NCCN1` [Clonidine], for which the LC retention time came to 2.85 min.

Turning to `O=C(O)C1NCCC1O` (centres undefined) [3-Hydroxyproline], the LC retention time stood at 8.17 min.

Turning to `O=C(O)c1cc(=O)c2ccccc2[nH]1` [Kynurenic acid], the LC retention time was found to be 6.15 min.

In the case of `CCCCCCCCCCCCCCCCCC(=O)OC(CC(=O)O)C[N+](C)(C)C` [Stearoyl-L-carnitine], the LC retention time was 2.96 min.

As to `CC(C)CC(NC(=O)CN)C(=O)O` (centres undefined) [Glycyl-leucine], the LC retention time came to 8.14 min.

`CCCCCCCCCCCCCCCC(=O)OC(CO)CO` [2-Palmitoylglycerol]: the LC retention time was 0.99 min.

`CC(C)(C#N)c1cc(Cn2cncn2)cc(C(C)(C)C#N)c1` [Anastrozole]: the LC retention time was 0.98 min.

In the case of `CC(=O)NC(CCC(=O)O)C(=O)O` (centres undefined) [N-Acetylglutamic acid], the LC retention time came to 7.67 min.

Regarding `CN(C)CCN(Cc1ccccc1)c1ccccn1` [Tripelennamine], the LC retention time is 1.98 min.

For `CCCCCC(=O)O` [Hexanoic acid], the LC retention time amounted to 4.89 min.

For the molecule `CC(C)C(=O)O` [Isobutyric acid], the LC retention time turned out to be 1.77 min.

Turning to `CC(NC(=O)C(Cc1ccc(O)cc1)NC(=O)CN)C(=O)O` (stereo not drawn) [Gly-Tyr-Ala], the LC retention time was determined as 7.89 min.

Regarding `CC(=O)NCCC(=O)NC(Cc1cnc[nH]1)C(=O)O` [N-Acetyl-L-carnosine], the LC retention time amounted to 8.35 min.

On to `O=Cc1c[nH]c2ccccc12` [Indole-3-carboxaldehyde], for which the LC retention time stood at 1.16 min.

Take `Nc1ccn(C2CC(O)C(COP(=O)(O)O)O2)c(=O)n1` (centres undefined) [2-Deoxycytidine-5-monophosphoric acid]: the LC retention time was determined as 9.16 min.

As to `CCOc1cc(CC(=O)NC(CC(C)C)c2ccccc2N2CCCCC2)ccc1C(=O)O` (centres undefined) [Repaglinide], the LC retention time turned out to be 1.01 min.

`Cc1c2oc3c(C)ccc(C(=O)NC4C(=O)NC(C(C)C)C(=O)N5CCCC5C(=O)N(C)CC(=O)N(C)C(C(C)C)C(=O)OC4C)c3nc-2c(C(=O)NC2C(=O)NC(C(C)C)C(=O)N3CCCC3C(=O)N(C)CC(=O)N(C)C(C(C)C)C(=O)OC2C)c(N)c1=O` (centres undefined) [Actinomycin D]: the LC retention time is 1.03 min.

Turning to `CC(CCCCC(=O)Nc1ccc(C(F)(F)F)cc1)NCCc1cnc[nH]1` (centres undefined) [Histamine-trifluoromethyltoluide], the LC retention time came to 5.3 min.

Turning to `CC(Cc1ccccc1)N(C)Cc1ccccc1` (centres undefined) [Benzphetamine], the LC retention time worked out at 2.03 min.

On to `CC(C)CC(NC(=O)C(C)N)C(=O)O` (centres undefined) [Ala-Leu], for which the LC retention time turned out to be 7.6 min.

In the case of `O=C(O)C=Cc1cnc[nH]1` [Urocanic acid], the LC retention time was 3.69 min.

As for `Nc1ccn(C2CSC(CO)O2)c(=O)n1` (centres undefined) [Lamivudine], the LC retention time was determined as 3.4 min.

Turning to `CC1OC(OCC2OC(Oc3c(-c4ccc(O)c(O)c4)oc4cc(O)cc(O)c4c3=O)C(O)C(O)C2O)C(O)C(O)C1O` (centres undefined) [Rutin], the LC retention time is 6.6 min.

Consider `CCN(CC)C(=O)C1(c2ccccc2)CC1CN` (centres undefined) [Milnacipran], for which the LC retention time is 3.23 min.

Consider `O=C(O)C=Cc1ccc(Cn2ccnc2)cc1` [Ozagrel], for which the LC retention time came out at 2.99 min.

`O=C(O)Cc1ccccc1Nc1c(Cl)cccc1Cl` [Diclofenac]: the LC retention time was 1.08 min.

As to `CCS(=O)(=O)CCn1c([N+](=O)[O-])cnc1C` [Tinidazole], the LC retention time is 1.04 min.

Turning to `NC(=O)Cc1ccccc1` [2-Phenylacetamide], the LC retention time was 1.26 min.

`Cc1cn(C2OC(CO)C(O)C2O)c(=S)[nH]c1=O` (centres undefined) [5-Methyl-2-thiouridine]: the LC retention time was found to be 1.98 min.

Consider `O=C(O)CP(=O)(O)O` [Phosphonoacetic acid], for which the LC retention time was 9.73 min.

For the molecule `CCC(=O)C(CC(C)N(C)C)(c1ccccc1)c1ccccc1` (centres undefined) [Methadone], the LC retention time came out at 2 min.

Regarding `CC1OC(OC2C(CO)OC(OC3C(CO)OC(O)C(O)C3O)C(O)C2O)C(O)C(O)C1NC1C=C(CO)C(O)C(O)C1O` (centres undefined) [Acarbose], the LC retention time was 9.88 min.

Turning to `NC(=O)CS(=O)C(c1ccccc1)c1ccccc1` (centres undefined) [Modafinil], the LC retention time was 1.27 min.

`NC(N)=Nc1nc(CSCCC(N)=NS(N)(=O)=O)cs1` [Famotidine]: the LC retention time worked out at 5.59 min.

Turning to `NC(CCO)C(=O)O` (centres undefined) [Homoserine], the LC retention time stood at 8.29 min.

As for `O=C(CCCN1CCC(O)(c2ccc(Cl)cc2)CC1)c1ccc(F)cc1` [Haloperidol], the LC retention time was 2.31 min.

As for `CC(C)C(N)C(=O)OCCOCn1cnc2c(=O)[nH]c(N)nc21` (centres undefined) [Valaciclovir], the LC retention time is 6.83 min.

`O=c1cc[nH]c2ccccc12` [4-Hydroxyquinoline]: the LC retention time was 1.69 min.

Regarding `CC(C)C1CCC(C(=O)NC(Cc2ccccc2)C(=O)O)CC1` (centres undefined) [Nateglinide], the LC retention time was determined as 1.3 min.

For the molecule `OCc1c[nH]c2ccccc12` [Indole-3-carbinol], the LC retention time was determined as 1.24 min.

On to `O=c1[nH]c(=S)ccn1C1OC(CO)C(O)C1O` (centres undefined) [4-Thiouridine], for which the LC retention time turned out to be 2.27 min.

On to `CCC1(CC)C(=O)NCC(C)C1=O` (centres undefined) [Methyprylon], for which the LC retention time is 1.18 min.

As for `CC(=O)OCCc1ccccc1` [Phenethylacetate], the LC retention time came out at 1.02 min.

As to `NCC(=O)NC(Cc1ccc(O)cc1)C(=O)O` (centres undefined) [Gly-Tyr], the LC retention time was 8.07 min.

Regarding `C=CC(C)(O)CCC=C(C)C` (centres undefined) [Linalool], the LC retention time worked out at 0.97 min.

As for `CCCc1c(OCCCCc2nn[nH]n2)ccc(C(C)=O)c1O` [Tomelukast], the LC retention time is 1.04 min.

(Values after the RepoRT retention time repository.)
